Reference: US12123051B2, “Nucleic acid ratio determination” (priority 2017, dated 2024)
In brackets after ≈: the same amount, converted by molar mass. Where two headings read alike, the source gives them in different places.

What was measured:
Type in all cases: cell-based
[1] = system: Chlamydia trachomatis strains 1-5; test: Minimum inhibitory concentration (MIC) of antibiotics, predetermined by standard procedures
Method: After infection, there was no change of media at the 4 h time point. Once in an exponential growth phase, 20 hours PI, cells were treated with a single dose of different antibiotics. […] Strains used for this treatment protocol were Strain 1) serovar D lab strain (UW-3/Cx), Strain 2) serovar L2 wild type lab strain (434/Bu), Strain 3) serovar L2 lab created mutant strain, resistant to trimethoprim, Strain 4) serovar L2 lab created mutant strain, resistant to Spectinomycin and Strain 5) serovar L2 lab created mutant strain, resistant to Rifampicin. MIC for all serovars and each antibiotic was predetermined, using standard procedures documented in literature, and listed in the table below. […] Strains 1, 2, 3 and 4 are also susceptible to rifampicin, whilst strain 5 is resistant to that same antibiotic. Samples were then incubated at 37° C. with 5% CO2 and harvested at 1 hour PT, using SPG buffer and extracted immediately. Two biological replicates were obtained for each condition.

[2] = system: Chlamydia trachomatis (serovar D) in HEp-2 cells; test: Antibiotic susceptibility testing by VITA PCR, azithromycin, Treatment Protocol B; conditions: Example 7: 0.128 μg/mL at 24 h PI
Method: The levels of GAT and NED were estimated and used to calculate VITA Index.
(§1) The ΔCt was calculated as the differences between the Ct values of the NED and GAT1/2 signals.
To measure NED, another region of Chlamydia DNA was co-amplified in the same RT-PCR using primers targeting a region of genomic DNA which is not transcribed. The levels of GAT and NED were estimated and used to calculate VITA Index.
as §1

[3] = system: Chlamydia trachomatis strains 1-5 in HEp-2 cells; conditions: 1 hour PT
Method: After infection, there was no change of media at the 4 h time point. Once in an exponential growth phase, 20 hours PI, cells were treated with a single dose of different antibiotics. […] Strains used for this treatment protocol were Strain 1) serovar D lab strain (UW-3/Cx), Strain 2) serovar L2 wild type lab strain (434/Bu), Strain 3) serovar L2 lab created mutant strain, resistant to trimethoprim, Strain 4) serovar L2 lab created mutant strain, resistant to Spectinomycin and Strain 5) serovar L2 lab created mutant strain, resistant to Rifampicin. […] Samples were then incubated at 37° C. with 5% CO2 and harvested at 1 hour PT, using SPG buffer and extracted immediately. Two biological replicates were obtained for each condition.
The following example analyses the susceptibility of bacteria to a given drug, by estimation of the change of GAT levels relative to NED in TNA samples. These were then compared between samples treated with antibiotic and not treated (control). […] Treatment was as described in example 1, Treatment E (1.1.5). To obtain a measure GAT, Chlamydia DNA and RNA was amplified by RT-PCR using primers targeting two different locations of the omp1 gene and its transcripts. To measure NED, another region of Chlamydia DNA was co-amplified in the same RT-PCR using primers targeting a region of genomic DNA which is not transcribed. The levels of GAT and NED were estimated and used to calculate VITA Index. Further to this the VITA Indices of treated and untreated samples were used to calculate the ΔVITA Ratio.
Partzyme oligonucleotides, Reporter substrates and PCR primers used for amplification and detection of GAT1, GAT2 and NED were as per example 9 (9.1, 9.2 and 9.3 respectively). The RT-PCR conditions used were as described in Example 9 (9.5) and reactions contained either 5 μL of TNA template (1/1000 dilution) or no target (dH2O).
Chlamydia DNA and RNA from 2 GAT regions and one NED region, were co-amplified and detected in single RT-PCR from TNA extracted from chlamydia cultures. These cultures were treated with antibiotic or left untreated (control) at an exponential growth phase and harvested at 1 hour post treatment. […] The ΔCt was calculated as the differences between the Ct values of the NED and GAT1/2 signals.
The following example analyses the susceptibility of bacteria to a given drug, by estimation of the change of GAT levels relative to NED in TNA samples. These were then compared between samples treated with antibiotic and not treated (control). […] To obtain a measure GAT, Chlamydia DNA and RNA was amplified by RT-PCR using primers targeting two different locations of the omp1 gene and its transcripts. To measure NED, another region of Chlamydia DNA was co-amplified in the same RT-PCR using primers targeting a region of genomic DNA which is not transcribed. The levels of GAT and NED were estimated and used to calculate VITA Index. Further to this the VITA Indices of treated and untreated samples were used to calculate the ΔVITA.
Chlamydia DNA and RNA from 2 GAT regions and one NED region, were co-amplified and detected in single RT-PCR from TNA extracted from chlamydia cultures. These cultures were treated with antibiotic (Rifampicin) or left untreated (control) during the exponential growth phase and harvested at one hour post treatment. […] The ΔCt was calculated as the differences between the Ct values of the NED and GAT1/2 signals.

[4] = system: Chlamydia trachomatis strain 1 and strain 5 in HEp-2 cells; test: Antibiotic susceptibility testing by VITA PCR, rifampicin, short incubation, Treatment Protocol C; conditions: for ΔVITA Ratio A/B: 0.256 μg/mL; for VITA Index: plus antibiotic 0.256 μg/mL
Method: After infection, there was no change of media at the 4 hour time point, essentially creating an unsynchronised population, which would be more similar to in vivo conditions. Once at an exponential growth phase, 20 hours PI, treatment was applied. This was achieved by replacing the DMEM for each well, with addition of either i) no antibiotic, or ii) antibiotic (0.256 μg/mL of Rifampicin). Samples were then either incubated at 37° C. with 5% CO2, and harvested after 5 minutes PT; or incubated at room temperature and harvested after 15 minutes PT. SPG buffer was used for harvest and TNA was extracted immediately after. Strains used for this treatment protocol were Strain 1) serovar D lab strain (UW-3/Cx), susceptible to rifampicin, and Strain 5) serovar L2 lab created mutant strain, resistant to Rifampicin.
The following example estimates the change of GAT levels relative to NED in TNA samples extracted from HEp-2 cells which had been infected with Chlamydia trachomatis strain 1 and strain 5 (serovar D lab strain and serovar L2 strain resistant to rifampicin respectively). TNA was extracted from cells, which had been either treated with the antibiotic Rifampicin at a concentration of 0.256 μg/mL, or not treated (control), at 20 hours post infection whilst in an exponential growth phase. Treatment was as described in example 1, Treatment C (1.1.3). To obtain a measure GAT, Chlamydia DNA and RNA was amplified by RT-PCR using primers targeting two different locations of the omp1 gene and its transcripts. To measure NED, another region of Chlamydia DNA was co-amplified in the same RT-PCR using primers targeting a region of genomic DNA which is not transcribed. The levels of GAT and NED were estimated and used to calculate VITA Index. Further to this the VITA Indices of treated and untreated samples were used to calculate the ΔVITA Ratio.
The reactions contained either 5 μL of TNA template (1/1000 dilution) or no target (dH2O).
Chlamydia DNA and RNA from 2 regions within the omp1 gene and transcripts (GAT1 and GAT2), and one NED region, were co-amplified and detected in single RT-PCR from TNA extracted from chlamydia cultures. These cultures were treated with antibiotic or left untreated (control) at an exponential growth phase. They were incubated for either 5 minutes at 37° C. (FIG. 7D) or 15 minutes at room temperature (FIG. 7E). […] The results were then compared between no treatment reactions (control) and those treated with antibiotic at each time point (FIGS. 7D-E).

[5] = Strain 1, serovar D lab strain (UW-3/Cx)
[6] = Strain 2, serovar L2 wild type lab strain (434/Bu)
[7] = Strain 3, serovar L2 mutant resistant to trimethoprim
[8] = Strain 4, serovar L2 mutant resistant to Spectinomycin
[9] = Strain 5, serovar L2 mutant resistant to Rifampicin
[10] = Resistant strain (strain 5), 5 min incubation PT at 37° C. with 5% CO2
[11] = Resistant strain (strain 5), 15 min incubation PT at room temperature
[12] = Susceptible strain (strain 1), 5 min incubation PT at 37° C. with 5% CO2
[13] = Susceptible strain (strain 1), 15 min incubation PT at room temperature

CC[C@H]1OC(=O)[C@H](C)[C@@H](O[C@H]2C[C@@](C)(OC)[C@@H](O)[C@H](C)O2)[C@H](C)[C@@H](O[C@@H]2O[C@H](C)C[C@H](N(C)C)[C@H]2O)[C@](C)(O)C[C@@H](C)CN(C)[C@H](C)[C@@H](O)[C@]1(C)O [Azithromycin]
Minimum inhibitory concentration (MIC), antibiotic dose [1, 5]: 0.032 µg/mL (≈ 0.0427 µM)
Minimum inhibitory concentration (MIC), antibiotic dose [1, 6]: 0.032 µg/mL (≈ 0.0427 µM)
Minimum inhibitory concentration (MIC), antibiotic dose [1, 7]: 0.016 µg/mL (≈ 0.0214 µM)
Minimum inhibitory concentration (MIC), antibiotic dose [1, 8]: 0.016 µg/mL (≈ 0.0214 µM)
Minimum inhibitory concentration (MIC), antibiotic dose [1, 9]: 0.032 µg/mL (≈ 0.0427 µM)
Susceptibility according to the MIC analysis ([1]; all strains used): susceptible
ΔVITA A/B (no antibiotic / plus antibiotic) ([2]; 1 h PT): 3.77
ΔVITA A/B (no antibiotic / plus antibiotic) ([2]; 6 h PT): 2.12

C[C@H]1c2cccc(O)c2C(=O)C2=C(O)[C@]3(O)C(=O)C(C(N)=O)=C(O)[C@@H](N(C)C)[C@@H]3[C@@H](O)[C@@H]21 [Doxycycline]
ΔVITA Ratio A/B ([3]; Table 12b: Strain 1, 0.256 μg/mL): 1.48
VITA Index ([3]; Table 12b: Strain 1, plus antibiotic 0.256 μg/mL): 2.80
ΔVITA Ratio A/B ([3]; Table 12b: Strain 2, 0.256 μg/mL): 1.24
VITA Index ([3]; Table 12b: Strain 2, plus antibiotic 0.256 μg/mL): 3.92
ΔVITA Ratio A/B ([3]; Table 12b: Strain 3, 0.256 μg/mL): 1.32
VITA Index ([3]; Table 12b: Strain 3, plus antibiotic 0.256 μg/mL): 5.64
ΔVITA Ratio A/B ([3]; Table 12b: Strain 5, 0.256 μg/mL): 1.43
VITA Index ([3]; Table 12b: Strain 5, plus antibiotic 0.256 μg/mL): 5.01
Minimum inhibitory concentration (MIC), antibiotic dose [1, 5]: 0.128 µg/mL (≈ 0.288 µM)
Minimum inhibitory concentration (MIC), antibiotic dose [1, 6]: 0.064 µg/mL (≈ 0.144 µM)
Minimum inhibitory concentration (MIC), antibiotic dose [1, 7]: 0.032 µg/mL (≈ 0.072 µM)
Minimum inhibitory concentration (MIC), antibiotic dose [1, 8]: 0.064 µg/mL (≈ 0.144 µM)
Minimum inhibitory concentration (MIC), antibiotic dose [1, 9]: 0.064 µg/mL (≈ 0.144 µM)

CO[C@H]1/C=C/O[C@@]2(C)Oc3c(C)c(O)c4c(O)c(c(/C=N/N5CCN(C)CC5)c(O)c4c3C2=O)NC(=O)/C(C)=C\C=C\[C@H](C)[C@H](O)[C@@H](C)[C@@H](O)[C@@H](C)[C@H](OC(C)=O)[C@@H]1C [Rifampicin]
ΔVITA Ratio A/B [4, 10]: 1.07
ΔVITA Ratio A/B [4, 11]: 0.91
VITA Index [4, 10]: 11.18
VITA Index [4, 11]: 11.41
ΔVITA Ratio A/B [4, 12]: 1.90
ΔVITA Ratio A/B [4, 13]: 1.80
VITA Index [4, 12]: 4.69
VITA Index [4, 13]: 4.41
ΔVITA Ratio A/B ([3]; Table 13: Strain 1, 0.256 μg/mL): 3.54
VITA Index ([3]; Table 13: Strain 1, plus antibiotic 0.256 μg/mL): 1.17
ΔVITA Ratio A/B ([3]; Table 13: Strain 2, 0.256 μg/mL): 2.93
VITA Index ([3]; Table 13: Strain 2, plus antibiotic 0.256 μg/mL): 1.66
ΔVITA Ratio A/B ([3]; Table 13: Strain 3, 0.256 μg/mL): 4.70
VITA Index ([3]; Table 13: Strain 3, plus antibiotic 0.256 μg/mL): 1.58
ΔVITA Ratio A/B ([3]; Table 13: Strain 4, 0.256 μg/mL): 5.86
VITA Index ([3]; Table 13: Strain 4, plus antibiotic 0.256 μg/mL): 1.68
ΔVITA Ratio A/B ([3]; Table 13: Strain 5 (Rifampicin resistant), 0.256 μg/mL): 1.06
VITA Index ([3]; Table 13: Strain 5 (Rifampicin resistant), plus antibiotic 0.256 μg/mL): 6.71
Minimum inhibitory concentration (MIC), antibiotic dose [1, 5]: 0.008 µg/mL (≈ 0.00972 µM)
Minimum inhibitory concentration (MIC), antibiotic dose [1, 6]: 0.004 µg/mL (≈ 0.00486 µM)
Minimum inhibitory concentration (MIC), antibiotic dose [1, 7]: 0.004 µg/mL (≈ 0.00486 µM)
Minimum inhibitory concentration (MIC), antibiotic dose [1, 8]: 0.004 µg/mL (≈ 0.00486 µM)
Minimum inhibitory concentration (MIC), antibiotic dose [1, 9]: 8.192 µg/mL (≈ 9.95 µM)
